Columns and labels:
Assay in all cases: MIC, broth microdilution (CLSI), substance alone or ATB combined with compound at 4 or 8 μg/mL
ECO 190317 = assay type: cell-based, E. coli; conditions: ECO 190317; for MIC ATB combined with Example: Example @8 μg/ml
Method in brief: (§1)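 Potentiation format: antibiotic dilution series run with test compound held at 4 or 8 μg/mL, alongside compound-alone MICs. Broth microdilution per CLSI in ca-MHB, 16-20 h at 35° C.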

ECO UFR39 = assay type: cell-based, E. coli; conditions: ECO UFR39; for MIC ATB combined with Example: Example @8 μg/ml; for MIC ATB combined with Example compound: compound @8 μg/ml
Method in brief: as §1

PAE UFR48 = assay type: cell-based, P. aeruginosa; conditions: PAE UFR48; for MIC ATB combined with Example: Example @8 μg/ml; for MIC ATB combined with Example compound: compound @8 μg/ml
Method in brief: as §1

PAE 105250 = assay type: cell-based, P. aeruginosa; conditions: PAE 105250; for MIC ATB combined with Example: Example @8 μg/ml; for MIC ATB combined with Example compound: compound @8 μg/ml
Method in brief: as §1

PAE UFR90 = assay type: cell-based, P. aeruginosa; conditions: PAE UFR90; for MIC ATB combined with Example: Example @8 μg/ml; for MIC ATB combined with Example compound: compound @8 μg/ml
Method in brief: as §1

SPN 49619 = assay type: cell-based, S. pneumoniae; conditions: SPN 49619; for MIC ATB combined with Example: Example @8 μg/ml; for MIC ATB combined with Example compound: compound @8 μg/ml
Method in brief: as §1

ECL P99 = assay type: cell-based, E. cloacae; conditions: ECL P99; for MIC ATB combined with Example: Example @8 μg/ml
Method in brief: as §1

KPN UFR42 = assay type: cell-based, K. pneumoniae; conditions: KPN UFR42; for MIC ATB combined with Example: Example @8 μg/ml; for MIC ATB combined with Example compound: compound @8 μg/ml
Method in brief: as §1

KPN BAA-1898 = assay type: cell-based, K. pneumoniae; conditions: KPN BAA-1898; for MIC ATB combined with Example: Example @8 μg/ml
Method in brief: as §1

KPN 6299 = assay type: cell-based, K. pneumoniae; conditions: for MIC ATB combined with Example: Example @8 μg/ml
Method in brief: as §1

SAU 29213 = assay type: cell-based, S. aureus; conditions: for MIC ATB combined with Example / MIC ATB combined with Example compound: SAU 29213; for MIC ATB combined with Example: Example @8 μg/ml; for MIC ATB combined with Example compound: compound @8 μg/ml
Method in brief: as §1

ABA UFR161 = assay type: cell-based, A. baumannii; conditions: substance alone
Method in brief: as §1

ABA 19606 = assay type: cell-based, A. baumannii; conditions: substance alone
Method in brief: as §1

MIC ATB combined with Example (ECO 190317; ATB ATM): <0.031 µg/mL
MIC ATB combined with Example (ECO 190317; ATB FEP): <0.031 µg/mL
MIC ATB combined with Example (ECO 190317; ATB FOS): <0.125 µg/mL
MIC ATB combined with Example (ECO 190317; ATB MEM): <0.031 µg/mL
MIC ATB combined with Example (ECO 190317; ATB PIP): <0.031 µg/mL
MIC ATB combined with Example compound (ECO 190317; MIC of CIP, compound @8 μg/ml): <0.031 µg/mL
MIC (ECO 190317; substance alone): 1 µg/mL
MIC ATB combined with Example (ECO UFR39; ATB ATM): <0.031 µg/mL
MIC ATB combined with Example (ECO UFR39; ATB FEP): <0.031 µg/mL
MIC ATB combined with Example (ECO UFR39; ATB FOS): <0.125 µg/mL
MIC ATB combined with Example (ECO UFR39; ATB MEM): <0.031 µg/mL
MIC ATB combined with Example (ECO UFR39; ATB PIP): <0.031 µg/mL
MIC ATB combined with Example compound (ECO UFR39; MIC of CIP): <0.031 µg/mL
MIC ATB combined with Example compound (ECO UFR39; MIC of CPO): <0.031 µg/mL
MIC (ECO UFR39; substance alone): 1 µg/mL
MIC ATB combined with Example (PAE UFR48; ATB ATM): 8 µg/mL
MIC ATB combined with Example (PAE UFR48; ATB FEP): 16 µg/mL
MIC ATB combined with Example (PAE UFR48; ATB FOS): 16 µg/mL
MIC ATB combined with Example (PAE UFR48; ATB MEM): 0.5 µg/mL
MIC ATB combined with Example (PAE UFR48; ATB PIP): 16 µg/mL
MIC ATB combined with Example compound (PAE UFR48; MIC of CIP): 4 µg/mL
MIC ATB combined with Example compound (PAE UFR48; MIC of CPO): >32 µg/mL
MIC (PAE UFR48; substance alone): >32 µg/mL
MIC ATB combined with Example (PAE 105250; ATB ATM): 8 µg/mL
MIC ATB combined with Example (PAE 105250; ATB FEP): 2 µg/mL
MIC ATB combined with Example (PAE 105250; ATB FOS): >128 µg/mL
MIC ATB combined with Example (PAE 105250; ATB MEM): 1 µg/mL
MIC ATB combined with Example (PAE 105250; ATB PIP): 32 µg/mL
MIC ATB combined with Example compound (PAE 105250; MIC of CIP): 0.125 µg/mL
MIC ATB combined with Example compound (PAE 105250; MIC of CPO): 8 µg/mL
MIC (PAE 105250; substance alone): >32 µg/mL
MIC ATB combined with Example (PAE UFR90; ATB ATM): 16 µg/mL
MIC ATB combined with Example (PAE UFR90; ATB FEP): 4 µg/mL
MIC ATB combined with Example (PAE UFR90; ATB FOS): 8 µg/mL
MIC ATB combined with Example (PAE UFR90; ATB MEM): 1 µg/mL
MIC ATB combined with Example (PAE UFR90; ATB PIP): >32 µg/mL
MIC ATB combined with Example compound (PAE UFR90; MIC of CIP): 1 µg/mL
MIC ATB combined with Example compound (PAE UFR90; MIC of CPO): 8 µg/mL
MIC (PAE UFR90; substance alone): >32 µg/mL
MIC ATB combined with Example (SPN 49619; ATB ATM): >32 µg/mL
MIC ATB combined with Example (SPN 49619; ATB FEP): <=0.031 μg/mL
MIC ATB combined with Example (SPN 49619; ATB FOS): 8 µg/mL
MIC ATB combined with Example (SPN 49619; ATB MEM): <=0.031 μg/mL
MIC ATB combined with Example (SPN 49619; ATB PIP): 0.25 µg/mL
MIC ATB combined with Example compound (SPN 49619; MIC of CIP): 0.063 µg/mL
MIC ATB combined with Example compound (SPN 49619; MIC of CLI): <0.0010 µg/mL
MIC ATB combined with Example compound (SPN 49619; MIC of CPO): <=0.031 μg/mL
MIC ATB combined with Example compound (SPN 49619; MIC of DAP): 0.031 µg/mL
MIC ATB combined with Example compound (SPN 49619; MIC of ERY): <0.0020 µg/mL
MIC ATB combined with Example compound (SPN 49619; MIC of LZD): 0.25 µg/mL
MIC ATB combined with Example compound (SPN 49619; MIC of RIF): 0.00049 µg/mL
MIC ATB combined with Example compound (SPN 49619; MIC of SYN): 0.125 µg/mL
MIC ATB combined with Example compound (SPN 49619; MIC of VAN): 0.016 µg/mL
MIC (SPN 49619; substance alone): 8 µg/mL
MIC ATB combined with Example (ECL P99; ATB ATM): <0.031 µg/mL
MIC ATB combined with Example (ECL P99; ATB FEP): <0.031 µg/mL
MIC ATB combined with Example (ECL P99; ATB FOS): <0.125 µg/mL
MIC ATB combined with Example (ECL P99; ATB MEM): <0.031 µg/mL
MIC ATB combined with Example (ECL P99; ATB PIP): <0.031 µg/mL
MIC ATB combined with Example compound (ECL P99; MIC of CIP, compound @8 μg/ml): <0.031 µg/mL
MIC (ECL P99; substance alone): 1 µg/mL
MIC ATB combined with Example (KPN UFR42; ATB ATM): <0.031 µg/mL
MIC ATB combined with Example (KPN UFR42; ATB FEP): <0.031 µg/mL
MIC ATB combined with Example (KPN UFR42; ATB FOS): <0.125 µg/mL
MIC ATB combined with Example (KPN UFR42; ATB MEM): <0.031 µg/mL
MIC ATB combined with Example (KPN UFR42; ATB PIP): <0.031 µg/mL
MIC ATB combined with Example compound (KPN UFR42; MIC of CIP): <0.031 µg/mL
MIC ATB combined with Example compound (KPN UFR42; MIC of CPO): <0.031 µg/mL
MIC (KPN UFR42; substance alone): 4 µg/mL
MIC ATB combined with Example (KPN BAA-1898; ATB ATM): <0.031 µg/mL
MIC ATB combined with Example (KPN BAA-1898; ATB FEP): <0.031 µg/mL
MIC ATB combined with Example (KPN BAA-1898; ATB FOS): <0.125 µg/mL
MIC ATB combined with Example (KPN BAA-1898; ATB MEM): <0.031 µg/mL
MIC ATB combined with Example (KPN BAA-1898; ATB PIP): <0.031 µg/mL
MIC ATB combined with Example compound (KPN BAA-1898; MIC of CIP, compound @8 μg/ml): <0.031 µg/mL
MIC (KPN BAA-1898; substance alone): 2 µg/mL
MIC ATB combined with Example (KPN 6299; ATB ATM): <0.031 µg/mL
MIC ATB combined with Example (KPN 6299; ATB FEP): <0.031 µg/mL
MIC ATB combined with Example (KPN 6299; ATB FOS): <0.125 µg/mL
MIC ATB combined with Example (KPN 6299; ATB MEM): <0.031 µg/mL
MIC ATB combined with Example (KPN 6299; ATB PIP): <0.031 µg/mL
MIC ATB combined with Example compound (KPN 6299; MIC of CIP, compound @8 μg/ml): <0.031 µg/mL
MIC ATB combined with Example (SAU 29213; ATB ATM): <0.031 µg/mL
MIC ATB combined with Example (SAU 29213; ATB FEP): <0.031 µg/mL
MIC ATB combined with Example (SAU 29213; ATB FOS): <0.125 µg/mL
MIC ATB combined with Example (SAU 29213; ATB MEM): <0.031 µg/mL
MIC ATB combined with Example (SAU 29213; ATB PIP): <0.031 µg/mL
MIC ATB combined with Example compound (SAU 29213; MIC of CIP): <31 ng/mL
MIC ATB combined with Example compound (SAU 29213; MIC of CLI): <1 ng/mL
MIC ATB combined with Example compound (SAU 29213; MIC of CPO): <31 ng/mL
MIC ATB combined with Example compound (SAU 29213; MIC of DAP): <2 ng/mL
MIC ATB combined with Example compound (SAU 29213; MIC of ERY): <2 ng/mL
MIC ATB combined with Example compound (SAU 29213; MIC of LZD): <7.8 ng/mL
MIC ATB combined with Example compound (SAU 29213; MIC of RIF): <0.12 ng/mL
MIC ATB combined with Example compound (SAU 29213; MIC of SYN): <2 ng/mL
MIC ATB combined with Example compound (SAU 29213; MIC of VAN): <3.9 ng/mL
MIC (SAU 29213; substance alone, SAU 29213 (MSSA 29213)): 8 µg/mL
MIC (ABA UFR161): >32 µg/mL
MIC (ABA 19606): 32 µg/mL
Compound: O=C1N2CC(n3ccnn3)=CC(C2)N1OS(=O)(=O)[O-].[Na+] (stereo not drawn) [Example 12, sodium [7-oxo-3-(triazol-1-yl)-1,6-diazabicyclo[3.2.1]oct-3-en-6-yl] sulfate]

From US20200024278A1, “COMPOSITION COMPRISING ANTIBIOTIC COMPOUND AND AN HETEROCYCLIC COMPOUND AND THEIR USE IN PREVENTING OR TREATING BACTERIAL INFECTIONS” (MUTABILIS, priority 2016, published 2020)
